Common to all, as to test: AK assay 384-well format, Prestwick library screening
The subject of assay [1] is A. baumannii strain 98-37-09. Format: cell-based, Acinetobacter baumannii. The note with it: 50 μM final drug concentration; for fold induction at 50 µM: Acinetobacter baumannii, 983709, 3 h.
For the next assay, the system named is E. cloacae. Format: cell-based, Enterobacter cloacae. The note with it: 50 μM final drug concentration; for fold induction at 50 µM: Enterobacter cloacae, 3 h.
The subject of another assay is P. aeruginosa. In kind it is cell-based, Pseudomonas aeruginosa. Conditions: 50 μM final drug concentration; for fold induction at 50 µM: Pseudomonas aeruginosa, 3 h.
For a further assay, the system named is E. faecium. Format: cell-based, Enterococcus faecium. Conditions: 50 μM final drug concentration; for fold induction at 50 µM: Enterococcus faecium, 3 h.
For a further assay, the system named is E. coli. Format: cell-based, Escherichia coli. The note with it: 50 μM final drug concentration; for fold induction at 50 µM: Escherichia coli, 3 h.
The next assay relates to K. pneumoniae. Format: cell-based, Klebsiella pneumoniae. Conditions: 50 μM final drug concentration; for fold induction at 50 µM: Klebsiella pneumoniae, 3 h.
Assay [2] deals with S. aureus strain USA300-0114. Format: cell-based, Staphylococcus aureus. The note with it: 50 μM final drug concentration; for fold induction at 50 µM: Staphylococcus aureus, USA300, 3 h.
[3] abbreviates: planktonic, cutoff for positive 3-fold increase, read-out: AK-based Prestwick Library Screening Results, A. baumannii (fold increase in extracellular AK activity).
The mark [4] stands for this setting: planktonic, cutoff for positive 3-fold increase, read-out: AK-based Prestwick Library Screening Results, E. cloacae (fold increase in extracellular AK activity).
Setting [5] is: planktonic, cutoff for positive 3-fold increase, read-out: AK-based Prestwick Library Screening Results, P. aeruginosa (fold increase in extracellular AK activity).
Setting [6] is: planktonic, cutoff for positive 3-fold increase, read-out: AK-based Prestwick Library Screening Results, E. faecium (fold increase in extracellular AK activity).
[7] abbreviates: planktonic, cutoff for positive 3-fold increase, read-out: AK-based Prestwick Library Screening Results, E. coli (fold increase in extracellular AK activity).
[8] abbreviates: planktonic, cutoff for positive 3-fold increase, read-out: AK-based Prestwick Library Screening Results, K. pneumoniae (fold increase in extracellular AK activity).
Setting [9] is: planktonic, cutoff for positive 3-fold increase, read-out: AK-based Prestwick Library Screening Results, S. aureus (fold increase in extracellular AK activity).
Where [10] appears, read: planktonic, cutoff for positive-scoring molecules 3-fold increase, read-out: AK-based Prestwick Library Screening Results, A. baumannii (fold increase in extracellular AK activity).
Setting [11] is: planktonic, cutoff for positive-scoring molecules 3-fold increase, read-out: AK-based Prestwick Library Screening Results, E. cloacae (fold increase in extracellular AK activity).
The mark [12] stands for this setting: planktonic, cutoff for positive-scoring molecules 3-fold increase, read-out: AK-based Prestwick Library Screening Results, P. aeruginosa (fold increase in extracellular AK activity).
Where [13] appears, read: planktonic, cutoff for positive-scoring molecules 3-fold increase, read-out: AK-based Prestwick Library Screening Results, E. faecium (fold increase in extracellular AK activity).
Setting [14] is: planktonic, cutoff for positive-scoring molecules 3-fold increase, read-out: AK-based Prestwick Library Screening Results, E. coli (fold increase in extracellular AK activity).
[15] abbreviates: planktonic, cutoff for positive-scoring molecules 3-fold increase, read-out: AK-based Prestwick Library Screening Results, K. pneumoniae (fold increase in extracellular AK activity).
The mark [16] stands for this setting: planktonic, cutoff for positive-scoring molecules 3-fold increase, read-out: AK-based Prestwick Library Screening Results, S. aureus (fold increase in extracellular AK activity).
Where [17] appears, read: 384-well format, cutoff for positive-scoring molecules 3-fold increase, read-out: AK-based Prestwick Library Screening Results, A. baumannii (increase in extracellular AK activity).
Setting [18] is: 384-well format, cutoff for positive-scoring molecules 3-fold increase, read-out: AK-based Prestwick Library Screening Results, E. cloacae (increase in extracellular AK activity).
[19] abbreviates: 384-well format, cutoff for positive-scoring molecules 3-fold increase, read-out: AK-based Prestwick Library Screening Results, P. aeruginosa (increase in extracellular AK activity).
Where [20] appears, read: 384-well format, cutoff for positive-scoring molecules 3-fold increase, read-out: AK-based Prestwick Library Screening Results, E. faecium (increase in extracellular AK activity).
Setting [21] is: 384-well format, cutoff for positive-scoring molecules 3-fold increase, read-out: AK-based Prestwick Library Screening Results, E. coli (increase in extracellular AK activity).
Setting [22] is: 384-well format, cutoff for positive-scoring molecules 3-fold increase, read-out: AK-based Prestwick Library Screening Results, K. pneumoniae (increase in extracellular AK activity).
Setting [23] is: 384-well format, cutoff for positive-scoring molecules 3-fold increase, read-out: AK-based Prestwick Library Screening Results, S. aureus (increase in extracellular AK activity).

Structures can show the parent of a compound that is named as a salt. Where two headings read alike, the source gives them in different places.

For `CC(=O)OCC(=O)[C@@]1(OC(C)=O)[C@@H](C)C[C@H]2[C@@H]3C[C@H](F)C4=CC(=O)C=C[C@]4(C)[C@@]3(F)[C@@H](O)C[C@@]21C` [Diflorasone Diacetate], the fold induction at 50 µM in assay [1] (setting [3]) stood at 0.9; with E. cloacae (setting [4]), 1.4; in the assay on P. aeruginosa (setting [5]), 1; in the assay with E. faecium (setting [6]), 1.1; with E. coli (setting [7]) it was 1.1; in the assay with K. pneumoniae (setting [8]), 1. In addition, the fold induction at 50 µM in assay [2] (setting [9]) stood at 1.1.
As for `CN(C)[C@@H]1C(O)=C(C(N)=O)C(=O)[C@@]2(O)C(O)=C3C(=O)c4c(O)ccc(Cl)c4[C@@H](O)[C@H]3C[C@@H]12` [Demeclocycline hydrochloride], the fold induction at 50 µM in assay [1] (setting [10]) amounted to 3.4; with E. cloacae (setting [11]) it was 1.3; in the assay with P. aeruginosa (setting [12]), 0.4; with E. faecium (setting [13]), 0.9; with E. coli (setting [14]), 0.5; with K. pneumoniae (setting [15]), 0.2. For the same compound, the fold induction at 50 µM in assay [2] (setting [16]) came out at 7.1.
Regarding `Cn1cnc([N+](=O)[O-])c1Sc1ncnc2nc[nH]c12` [Azathioprine], the fold induction at 50 µM in assay [1] (setting [17]) was determined as 0.7; in the assay with E. cloacae (setting [18]), 0.8; with P. aeruginosa (setting [19]), 0.6; in the assay with E. faecium (setting [20]), 0.8; in the assay with E. coli (setting [21]) it was 0.6; in the assay with K. pneumoniae (setting [22]) it was 0.5. For the same compound, the fold induction at 50 µM in assay [2] (setting [23]) was 0.7.
On to Clofilium tosylate, for which, in assay [1] (planktonic A. baumannii, 384-well, cutoff for positive-scoring molecules 3-fold increase), the “AK-based Prestwick Library Screening Results: A. baumannii (increase in extracellular AK activity)” value is recorded as 1.6. Further, the “AK-based Prestwick Library Screening Results: E. cloacae (increase in extracellular AK activity)” value in the assay with E. cloacae (planktonic E. cloacae, 384-well, cutoff for positive-scoring molecules 3-fold increase) is recorded as 1.2. In addition, the “AK-based Prestwick Library Screening Results: P. aeruginosa (increase in extracellular AK activity)” value with P. aeruginosa (planktonic P. aeruginosa, 384-well, cutoff for positive-scoring molecules 3-fold increase) was 1.3. The “AK-based Prestwick Library Screening Results: E. faecium (increase in extracellular AK activity)” value in the assay on E. faecium (planktonic E. faecium, 384-well, cutoff for positive-scoring molecules 3-fold increase) is listed as 1.4. The “AK-based Prestwick Library Screening Results: E. coli (increase in extracellular AK activity)” value in the assay on E. coli (planktonic E. coli, 384-well, cutoff for positive-scoring molecules 3-fold increase) amounted to 1.5. Also, the “AK-based Prestwick Library Screening Results: K. pneumoniae (increase in extracellular AK activity)” value in the assay with K. pneumoniae (planktonic K. pneumoniae, 384-well, cutoff for positive-scoring molecules 3-fold increase) is recorded as 1.5. Also, in assay [2] (planktonic S. aureus, 384-well, cutoff for positive-scoring molecules 3-fold increase), the “AK-based Prestwick Library Screening Results: S. aureus (increase in extracellular AK activity)” value was 1.2.
As for `CCCCNc1c(C(=O)OCC)c(C)nc2c1cnn2CC` [Tracazolate hydrochloride], the fold induction at 50 µM in assay [1] (planktonic A. baumannii, positive cutoff 3-fold increase, read-out: AK-based Prestwick library screening result, A. baumannii (fold increase in extracellular AK activity)) came to 0.8; with E. cloacae (planktonic E. cloacae, positive cutoff 3-fold increase, read-out: AK-based Prestwick library screening result, E. cloacae (fold increase in extracellular AK activity)), 0.7; in the assay on P. aeruginosa (planktonic P. aeruginosa, positive cutoff 3-fold increase, read-out: AK-based Prestwick library screening result, P. aeruginosa (fold increase in extracellular AK activity)) it was 0.6; in the assay with E. faecium (planktonic E. faecium, positive cutoff 3-fold increase, read-out: AK-based Prestwick library screening result, E. faecium (fold increase in extracellular AK activity)) it was 1.1; with E. coli (planktonic E. coli, positive cutoff 3-fold increase, read-out: AK-based Prestwick library screening result, E. coli (fold increase in extracellular AK activity)) it was 0.5; in the assay with K. pneumoniae (planktonic K. pneumoniae, positive cutoff 3-fold increase, read-out: AK-based Prestwick library screening result, K. pneumoniae (fold increase in extracellular AK activity)), 0.6. Further, in assay [2] (planktonic S. aureus, positive cutoff 3-fold increase, read-out: AK-based Prestwick library screening result, S. aureus (fold increase in extracellular AK activity)), the fold induction at 50 µM is 0.5.
As to `CC1(C)O[C@@H]2C[C@H]3[C@@H]4C[C@H](F)C5=CC(=O)CC[C@]5(C)[C@H]4[C@@H](O)C[C@]3(C)[C@]2(C(=O)CO)O1` [Flurandrenolide], the fold induction at 50 µM is 0.5 in assay [1] (setting [3]); 0.3 in the assay on E. cloacae (setting [4]); 0.4 with P. aeruginosa (setting [5]); 0.8 with E. faecium (setting [6]); 0.5 in the assay with E. coli (setting [7]); 0.5 in the assay with K. pneumoniae (setting [8]). Moreover, the fold induction at 50 µM in assay [2] (setting [9]) was found to be 0.4.
In the case of `CO[C@@]1(NC(=O)Cc2cccs2)C(=O)N2C(C(=O)O)=C(COC(N)=O)CS[C@@H]21` [Cefoxitin sodium salt], the fold induction at 50 µM was determined as 1.3 in assay [1] (setting [10]); 1.2 in the assay on E. cloacae (setting [11]); 0.8 in the assay on P. aeruginosa (setting [12]); 1 in the assay on E. faecium (setting [13]); 20.1 in the assay with E. coli (setting [14]); 3.2 in the assay with K. pneumoniae (setting [15]). In addition, in assay [2] (setting [16]), the fold induction at 50 µM worked out at 3.4.
As for `CC(C)NCC(O)c1ccc(NS(C)(=O)=O)cc1` (stereo not drawn) [Sotalol hydrochloride], the fold induction at 50 µM in assay [1] (cutoff for positive-scoring molecules 3-fold increase, read-out: AK-based Prestwick Library Screening Results, A. baumannii (fold increase in extracellular AK activity)) was 0.5; in the assay with E. cloacae (cutoff for positive-scoring molecules 3-fold increase, read-out: AK-based Prestwick Library Screening Results, E. cloacae (fold increase in extracellular AK activity)) it was 0.4; in the assay on P. aeruginosa (cutoff for positive-scoring molecules 3-fold increase, read-out: AK-based Prestwick Library Screening Results, P. aeruginosa (fold increase in extracellular AK activity)), 0.4; in the assay on E. faecium (cutoff for positive-scoring molecules 3-fold increase, read-out: AK-based Prestwick Library Screening Results, E. faecium (fold increase in extracellular AK activity)), 0.8; in the assay with E. coli (cutoff for positive-scoring molecules 3-fold increase, read-out: AK-based Prestwick Library Screening Results, E. coli (fold increase in extracellular AK activity)), 0.4; with K. pneumoniae (cutoff for positive-scoring molecules 3-fold increase, read-out: AK-based Prestwick Library Screening Results, K. pneumoniae (fold increase in extracellular AK activity)), 0.5. Also, in assay [2] (cutoff for positive-scoring molecules 3-fold increase, read-out: AK-based Prestwick Library Screening Results, S. aureus (fold increase in extracellular AK activity)), the fold induction at 50 µM was 0.4.
Turning to `CC1=NS(=O)(=O)c2cc(Cl)ccc2N1` [Diazoxide], the fold induction at 50 µM in assay [1] (setting [17]) amounted to 0.4; in the assay with E. cloacae (setting [18]), 0.4; with P. aeruginosa (setting [19]), 0.4; in the assay on E. faecium (setting [20]), 0.9; in the assay with E. coli (setting [21]), 0.5; in the assay on K. pneumoniae (setting [22]) it was 0.4. For the same compound, the fold induction at 50 µM in assay [2] (setting [23]) worked out at 0.5.

The values are drawn from patent US10004701B2, “Methods and compositions for treating infection” (UNIVERSITY OF ROCHESTER, priority 2012, dated 2018).
